From patent publication US7511137B2, “Stereoisomers and stereoisomeric mixtures of 1-(2,4-pyrimidinediamino)-2-cyclopentanecarboxamide synthetic intermediates” (Rigel Pharmaceuticals, Inc., priority 2003, dated 2009) come the findings set out here.

Format in all cases: cell-based
The test system of one assay is H1299 (lung). The assay can be described thus: in vitro antiproliferation assay, H1299. To be noted: Homo sapiens, NCI-H1299; H1299 lung tumor cell line. As to the method: (§1) The four stereoisomers isomers of (1S, 2R)-1-(2,4-pyrimidinediamino)-2-cyclopentanecarboxamide (1), (2), (3) and (4) were prepared as described in Examples 1-4. The racemic mixture of the cis compound was prepared as described herein. The IC50 values of various compounds against different tumor cell lines were determined using standard in vitro antiproliferation assays. The tumor cell lines tested were as follows: A549 (lung); H1299 (lung); DU145 (prostate); HCT116 (colon/p53wt); and mirapaca.

Assay [1] deals with a variety of tumor cell lines. The assay is described as follows: conventional antiproliferative assays, result in words. How it is done: Accordingly, stereoisomers of related 1-(2,4-pyrimidinediamino)-2-cyclopentanecarboxamides are expected to have analogous activity in antiproliferative assays.
as §1

A further assay has as its system A549 (lung). The assay is described as follows: in vitro antiproliferation assay, A549. To be noted: Homo sapiens; A549 lung tumor cell line. As to the method: as §1
The subject of a further assay is DU145 (prostate). The assay is described as follows: in vitro antiproliferation assay, DU145. The settings on record: Homo sapiens, DU-145; DU145 prostate tumor cell line. How it is done: as §1
In another assay the test system is HCT116 (colon/p53wt). The assay can be described thus: in vitro antiproliferation assay, HCT116. The settings on record: Homo sapiens, HCT-116; HCT116 colon/p53wt tumor cell line. As to the method: as §1

SMILES strings stand for the structures. Entries after “also recorded” stand apart in the source; their conditions may differ. Read-outs that look alike come from different tables or passages of the source. Bounds are passed on as bounds.

One may read the IC50 as the concentration that inhibits the measured activity by half. For `Cc1cc(Nc2ncc(F)c(N[C@H]3CCC[C@@H]3C(N)=O)n2)ccc1N1CCN(C)CC1` [Compound 3, (1S, 2S)-1-(2,4-pyrimidinediamino)-2-cyclopentanecarboxamide], the IC50 with H1299 (lung) and in the assay on A549 (lung) was over 20 µM throughout. The “antiproliferative activity (in words)” value was “antiproliferative activity” in assay [1] and “inactive” in assay [1] (listed as trans (1S, 2S)).

With `Cc1cc(Nc2ncc(F)c(N[C@@H]3CCC[C@H]3C(N)=O)n2)ccc1N1CCN(C)CC1` [Compound 4, (1R, 2R)-1-(2,4-pyrimidinediamino)-2-cyclopentanecarboxamide], the IC50 with DU145 (prostate), with H1299 (lung), in the assay with HCT116 (colon/p53wt) and in the assay on A549 (lung) was under 5 µM in each case. Moreover, the “antiproliferative activity (in words)” value in assay [1] is “active”.

In the case of `Cc1cc(Nc2ncc(F)c(N[C@H]3CCC[C@H]3C(N)=O)n2)ccc1N1CCN(C)CC1` [Compound 2, (1R, 2S)-1-(2,4-pyrimidinediamino)-2-cyclopentanecarboxamide], the IC50 in the assay on H1299 (lung) was under 10 µM; in the assay on A549 (lung) it was under 5 µM. For the same molecule, the “antiproliferative activity (in words)” value in assay [1] is “antiproliferative activity; also recorded: active”.

In the assay with HCT116 (colon/p53wt), `Cc1cc(Nc2ncc(F)c(N[C@@H]3CCC[C@@H]3C(N)=O)n2)ccc1N1CCN(C)CC1` [Compound 1, (1S, 2R)-1-(2,4-pyrimidinediamino)-2-cyclopentanecarboxamide] displayed an IC50 of under 0.1 µM. Also, the “antiproliferative activity (in words)” value in assay [1] was “antiproliferative activity; also recorded: active”.
